Read-outs that look alike come from different tables or passages of the source. Blank lines part the entries; values can stand above or below the molecule they belong to.
How the values were obtained:
[1] = assay type: in vivo, human; conditions: through cycles 1 and 2, combination treatment
[2] = Pharmacokinetics: everolimus blood levels, LC/MS, noncompartmental analysis; assay type: in vivo, human; conditions: through cycles 1 and 2, combination treatment
[3] = system: advanced non-clear cell RCC; conditions: single agent, 23 patients with advanced non-clear cell RCC; cited from earlier work

accumulation [1]: No unexpected accumulation
SMILES: CCNCCNC(=O)c1c(C)[nH]c(/C=C2\C(=O)Nc3ccc(F)cc32)c1C [N-desethyl sunitinib]

accumulation [2]: No unexpected accumulation
SMILES: CO[C@H]1C[C@@H]2CC[C@@H](C)[C@@](O)(O2)C(=O)C(=O)N2CCCC[C@H]2C(=O)O[C@H]([C@H](C)C[C@@H]2CC[C@@H](OCCO)[C@H](OC)C2)CC(=O)[C@H](C)/C=C(\C)[C@@H](O)[C@@H](OC)C(=O)[C@H](C)C[C@H](C)/C=C/C=C/C=C/1C [everolimus]

SMILES: CCN(CC)CCNC(=O)c1c(C)[nH]c(/C=C2\C(=O)Nc3ccc(F)cc32)c1C [sunitinib]
median PFS [3]: 5.5 months | responses [3]: no responses

Source: publication PMC3609026 (Cancer, 2011)
